Data as given in US7910594B2 (priority 2002, dated 2011).
Where “and” joins values, the source holds several entries; their conditions need not be identical. Equal values may be shown once.

What was measured:
M109 tumor = assay: survival of intraperitoneal M109 tumor-bearing mice; assay type: in vivo, Balb/c mice; conditions: for increase in lifespan (ILS): 1800 mmoles/kg i.p. once daily beginning on day 5 after tumor cell inoculation, FIG. 2
Description: (§1) The effectiveness of EC72 for promoting survival of tumor-bearing mice was evaluated in vivo using M109 tumor-bearing Balb/c mice. There were two goals of this study: i) to determine if daily intraperitoneal treatment with EC72 could prolong the lives of folate receptor-positive tumor-bearing mice beyond what mitomycin C could do when tested under an identical dosing regimen, and ii) to examine the pathological effects of EC72 treatment on normal tissues, including kidney tissue which is folate receptor-positive tissue. Although most normal tissues contain very low levels of folate receptor, the proximal tubules of the kidney express appreciable numbers of folate receptors. Thus, the in vivo evaluation of EC72 also enabled evaluation of the extent of kidney-specific damage caused by the systemic administration of folate-mitomycin conjugates.
Balb/c mice (5 mice/group) were given an intraperitoneal injection with 1×10^6 M109 cells. The mice were then given an intraperitoneal injection once daily with […]/kg of EC72 or mitomycin C (control mice were injected with PBS) beginning on day 5 after tumor cell innoculation (ILS=increased life span (i.e., median survival time)).
Thus, a group of animals were given intraperitoneal injections of EC72 plus a 10-fold excess of free folic acid.

[1] = for myelosuppression / kidney damage: M109 tumor-bearing mice, daily i.p. treatment
Description: as §1
Major organs were also collected in both the EC72 and mitomycin C-treated animals (following euthanasia), and they were sent to an independent pathologist for examination.

subcutaneous M109 tumors [2] = assay: subcutaneous M109 tumors treated with TAXOL with or without EC72; assay type: in vivo, Balb/c mice
Description: The protocol described in Example 5 was followed except that animals were injected i.v. at the beginning of the treatment period and were injected i.p. later in the treatment period.
Tumor volumes were calculated using the equation V=a×b^2/2, where “a” is the length of the tumor and “b” is the width expressed in millimeters. The tumors were measured using calipers.

[3] = toxicity of TAXOL / EC72 regimens (weight loss, blood chemistry, tissue pathology); assay type: in vivo, Balb/c mice; parameters: key to Liver: mice with Degeneration / Liver: grade of Degeneration: “0.5” = Occasionally present; “1” = Mild; “2” = Moderate; “3” = Marked
Text: The toxicity of each tested regimen was also monitored by measuring weight loss, blood chemistry, and tissue pathology.

[4] = tested on: folate receptor-positive KB cells; assay: in vitro cytotoxicity assay (bromodeoxyuridine-based ELISA); assay type: cell-based
Description: A compound denominated as EC72 (see scheme 1) was evaluated using an in vitro cytotoxicity assay that predicts the ability of the drug to inhibit the growth of folate receptor-positive KB cells. This compound comprises a folate analog linked to mitomycin C prepared according to the protocol depicted in scheme 2. The KB cells were exposed for 15 minutes at 37° C. to the indicated concentrations of EC72, free mitomyicn C (drug #1), or to EC72 and at least a 100-fold excess of folic acid. The cells were then rinsed once with fresh culture medium and incubated in fresh culture medium for 72 hours at 37° C. Cell viability was assessed using a bromodeoxyuridine-based ELISA assay.

subcutaneous M109 tumors [5] = assay: growth of subcutaneous M109 tumors, EC72 i.v. then i.p.; assay type: in vivo, Balb/c mice; conditions: 1800 nmoles/kg qd×5 for six weeks from day 4, i.v. (12 injections) then i.p.; FIG. 4
Description: The anti-tumor activity of EC72 when administered intravenously (i.v.) to tumor-bearing animals, was evaluated in Balb/c mice bearing subcutaneous M109 tumors. Thus, a protocol similar to that described in Example 3 was followed except that the compounds were administered i.v. (described below) and the tumors were subcutaneous. Four days post tumor inoculation in the subcutis of the right axilla, mice were injected i.v. qd×5 for six weeks with 1800 nmoles/kg of EC72.
Tumor growth was determined at 2-day intervals in each treatment group until the tumors grew to at least 1500 mm3. The tail veins became excessively bruised and inaccessible after 12 i.v. injections so dosing was continued i.p. following the same qd×5 schedule. […] Thus, EC72 may not have reached the distal subcutaneous tumor efficiently following i.p. administration of EC72, a limitation not encountered when EC72 was administered i.v. during the initial phase of the therapy.

subcutaneous M109 tumors [6] = assay: survival of mice bearing subcutaneous M109 tumors, delayed start of EC72 treatment; assay type: in vivo, Balb/c mice; conditions: for Median Survival: EC72 1800 nmol/kg i.v. qd×5 for 4 weeks
Description: The protocol described in Example 4 was followed except that mice were injected i.v. throughout the treatment period and were treated with EC72 for 4 weeks. Balb/c mice (n=5) were injected subcutaneously in the subcutis of the right axilla with 1×10^6 M109 cells and were treated qd×5 for 4 weeks with 1800 nmol/kg of EC72. EC72 was administered i.v. beginning on the designated day post tumor cell inoculation (PTI; see Table 3). Animal survival was monitored daily, and mice showing a complete response were those that were tumor-free at day 60 PTI.

[7] = biological target: T1, folate receptors (FRs) on KB cells (Homo sapiens, UniProt P15328); assay: relative affinity assay (3H-folic acid displacement); assay type: binding; conditions: 100 nM 3H-folic acid, 15 min on ice, folic acid set to 1, FIG. 9
T1 construct: FR-positive KB cells were gently trypsinized; endogenous in cells; host or cells: KB cells
Description: The affinity of EC72 for folate receptors (FRs) relative to folate was determined according to a previously described method (Westerhof, G. R., J. H. Schomagel, et al. (1995) Mol. Pharm. 48: 459-471) with slight modification. Briefly, FR-positive KB cells were gently trypsinized in 0.25% trypsin in phosphate-buffered saline (PBS) at room temperature for 3 minutes and then diluted in folate-free RPMI (FFRPMI) containing 10% heat-inactivated fetal calf serum (HIFCS). Following a 5 min 800×g spin and one PBS wash, the final cell pellet was suspended in FFRPMI 1640 (no serum). Cells were incubated for 15 min on ice with 100 nM ^3H-folic acid in the absence and presence of increasing concentrations of EC72 or folate. Samples were centrifuged at 10,000×g for 5 min, and then the cell pellets were suspended in buffer, transferred to individual vials containing 5 mL of scintillation cocktail, and then counted for radioactivity. Negative control tubes contained only the ^3H-folic acid in FFRPMI (no competitor). Positive control tubes contained a final concentration of 1 mM folic acid, and CPMs measured in these samples (representing non-specific binding of label) were subtracted from all samples.

FR-positive KB cells = assay: in vitro dose response, 3H-thymidine incorporation (DNA synthesis); assay type: cell-based; conditions: 0.1 mM folic acid (competitor)
Description: KB cells were seeded in 12-well Falcon plates and allowed to form near-confluent monolayers overnight. Following one rinse with 1 mL of fresh FFRPMI/HIFCS, each well received 0.5 mL of FFRPMI/HIFCS containing increasing concentrations of EC72 in the presence of absence of 0.1 mM folic acid (competitor). Cells were incubated for 15 min at 37° C. and then rinsed four times with 0.5 mL of FFRPMI/HIFCS. 0.5 mL of fresh FFRPMI/HIFCS was then added to each well, and cells were chased for a total of 72 h at 37° C. Two hours before the end of the incubation, media was replaced in each well with 0.5 mL FFRPMI/HIFCS containing 5 μCi of ^3H-thymidine. Monolayers were then washed 3 times with 0.5 mL of PBS and then precipitated with 1 ml of 10% cold trichloroacetic acid. The trichloroacetic acid solution was collected and discarded, and precipitated material was sequentially dissolved in 0.5 mL 0.25 N NaOH and 1% sodium dodecyl sulfate for 15 min at room temperature. Samples were then counted for radioactivity using a Packard gamma counter. Final tabulated values were expressed as a percentage of radioactivity incorporated into untreated cell samples.

[8] = tested on: Folate receptor-positive M109 P0 tumor cells; assay: in vivo dose response, intraperitoneal M109 tumor; parameters: species or system mice (female Balb/C strain)
Description: Six to seven week-old mice (female Balb/C strain) were obtained from Harlan, Inc., Indianapolis, Ind. The mice were maintained on Harlan's folate-free chow for a total of three weeks prior to the onset of and during this experiment. Folate receptor-positive M109 P0 tumor cells (0.5×10^6 cells per animal) were inoculated in the upper peritoneal cavity 4 days prior to the onset of dosing. The formulations indicated in FIG. 11 were dosed intraperitoneally qd×30 starting on day 4 post tumor inoculation, and animal survival was monitored daily.

[9] = tested on: Folate receptor-negative 4T-1 tumor; assay: in vivo activity on folate receptor-negative tumor; parameters: species or system mice (female Balb/C strain); conditions: i.p. qd×30 from day 4 post tumor inoculation; FIG. 12
Description: Six to seven week-old mice (female Balb/C strain) were obtained from Harlan, Inc., Indianapolis, Ind. The mice were maintained on Harlan's folate-free chow for a total of three weeks prior to the onset of and during this experiment. Folate receptor-negative 4T-1 tumor cells (1×10^6 cells per animal) were inoculated in the subcutis of the right axilla. The formulations indicated in FIG. 12 were dosed intraperitoneally qd×30 starting on day 4 post tumor inoculation, and tumor volume as well as animal survival were monitored daily. EC72 had no activity against a subcutaneous folate-receptor-negative 4T-1 tumor.

[10] = Taxol 15 mg/kg with EC72 0 or 1800 nmol/kg, 6 mice/cohort
[11] = Taxol 15 mg/kg with EC72 0 or 1800 nmol/kg, 6 mice/cohort, listed as Taxol
[12] = tissue pathology, TAXOL 15 mg/kg, n = 6 mice

T1 sequence (P15328 25-234): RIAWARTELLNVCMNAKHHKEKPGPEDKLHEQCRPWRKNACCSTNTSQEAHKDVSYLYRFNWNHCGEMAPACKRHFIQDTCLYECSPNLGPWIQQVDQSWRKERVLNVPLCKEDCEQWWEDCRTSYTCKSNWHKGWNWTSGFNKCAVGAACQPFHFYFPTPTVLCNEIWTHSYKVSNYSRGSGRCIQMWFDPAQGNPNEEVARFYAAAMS

SMILES: CO[C@@]12[C@H](COC(N)=O)C3=C(C(=O)C(C)=C(N)C3=O)N1C[C@@H]1N[C@@H]12 [mitomycin C, reference compound]
- increase in lifespan (ILS) (M109 tumor): 39%
- increased life span (median survival time) over PBS control group (M109 tumor; repeat experiment, 30 daily i.p. injections, FIG. 3): ~25%
- myelosuppression / kidney damage [1]: extensive myelosuppression
- cause of death of treated animals ([1]; mouse, in vivo, ip): died from apparent mitomycin C-related side effects

SMILES: CC(=O)O[C@H]1C(=O)[C@@]2(C)[C@H]([C@H](OC(=O)c3ccccc3)[C@]3(O)C[C@H](OC(=O)[C@H](O)[C@@H](NC(=O)c4ccccc4)c4ccccc4)C(C)=C1C3(C)C)[C@]1(OC(C)=O)CO[C@@H]1C[C@@H]2O [TAXOL®, paclitaxel]
- day PTI until which tumors failed to grow (subcutaneous M109 tumors [2]; TAXOL 15 mg/kg, from day 12 PTI): 21 day PTI
- log cell kill (LCK) (subcutaneous M109 tumors [2]; TAXOL 20 mg/kg i.v. with or without EC72 1800 nmol/kg qd×5 for 4 weeks, from day 12 PTI, FIG. 7): 1.3
- day PTI until which tumors failed to grow (subcutaneous M109 tumors [2]; TAXOL 20 mg/kg, from day 12 PTI): 29 day PTI
- long term survivors (subcutaneous M109 tumors [2]; TAXOL 20 mg/kg, n=5): none of the 5 mice
- CR (complete response) (subcutaneous M109 tumors [2]; [10]): 2 of the 6
- NR (no response) (subcutaneous M109 tumors [2]; [10]): 0
- PR (partial response) (subcutaneous M109 tumors [2]; [10]): 4 of the 6
- CR (complete response) (subcutaneous M109 tumors [2]; [11]): 2
- PR (partial response) (subcutaneous M109 tumors [2]; [11]): 4
- Log Cell Kill (LCK) (subcutaneous M109 tumors [2]; Taxol 15 mg/kg with EC72 0 or 1800 nmol/kg, from day 12 PTI, 6 mice/cohort, FIG. 8): 0.6
- appearance and body weight during dosing ([3]; TAXOL 20 mg/kg with or without EC72 1800 nmol/kg): appeared sick, experienced weight loss
- Bone: mice Normal [3, 12]: 6
- Heart: mice Normal [3, 12]: 6
- Kidney: mice Normal [3, 12]: 6
- Liver: mice Normal [3, 12]: 5
- Spleen: mice Normal [3, 12]: 6
- Liver: grade of Degeneration ([3]; tissue pathology, grade in brackets): 1(1)
- Liver: mice with Degeneration ([3]; tissue pathology, number before the bracket, n = 6 mice): 1(1)

SMILES: CO[C@@]12[C@H](COC(N)=O)C3=C(C(=O)C(C)=C(NCCSSC[C@H](NC(=O)CC[C@H](NC(=O)c4ccc(NCc5cnc6nc(N)[nH]c(=O)c6n5)cc4)C(=O)O)C(=O)O)C3=O)N1C[C@@H]1N[C@@H]12 [EC72]
- cytotoxicity compared with free mitomycin C ([4]; 15 minutes exposure at 37° C., 72 hours chase, FIG. 1): equal to that of free mitomycin C
- cytotoxicity in the presence of excess free folic acid ([4]; at least a 100-fold excess of folic acid): blocked
- increase in lifespan (ILS) (M109 tumor): 178%
- animals tumor-free by day 70 post tumor cell inoculation (M109 tumor; 30 daily i.p. injections): 1 of 4
- outcome of group coinjected with folic acid (M109 tumor; EC72 plus a 10-fold excess of free folic acid): all mice in this group eventually died from the tumor burden
- myelosuppression / kidney damage [1]: no evidence of myelosuppression or kidney damage
- blood-urea-nitrogen and creatine levels ([1]; following 30 consecutive daily injections): normal
- effect on growth of subcutaneous M109 tumor (subcutaneous M109 tumors [5]): effective in delaying the growth of the M109 tumor
- Median Survival (subcutaneous M109 tumors [6]; initiation PTI 1): 56 days
- Median Survival (subcutaneous M109 tumors [6]; initiation PTI 3): 54 days
- Median Survival (subcutaneous M109 tumors [6]; initiation PTI 7): 28 days
- Median Survival (subcutaneous M109 tumors [6]; initiation PTI 12): 26 days
- anti-tumor response of EC72 alone (subcutaneous M109 tumors [6]; EC72 treatment initiated 12 days PTI, subcutaneous tumor model): failed to produce an anti-tumor response
- % ILS (subcutaneous M109 tumors [6]; initiation PTI 1): 133%
- Complete Responses (tumor-free at day 60 PTI) (subcutaneous M109 tumors [6]; initiation PTI 1, n = 5): 2 of 5 and 2
- Partial Responses (subcutaneous M109 tumors [6]; initiation PTI 1, n = 5): 3 of 5 and 3
- % ILS (subcutaneous M109 tumors [6]; initiation PTI 3): 125%
- Complete Responses (tumor-free at day 60 PTI) (subcutaneous M109 tumors [6]; initiation PTI 3, n = 5): 0
- Partial Responses (subcutaneous M109 tumors [6]; initiation PTI 3, n = 5): 5
- % ILS (subcutaneous M109 tumors [6]; initiation PTI 7): 17%
- Complete Responses (tumor-free at day 60 PTI) (subcutaneous M109 tumors [6]; initiation PTI 7, n = 5): 0
- Partial Responses (subcutaneous M109 tumors [6]; initiation PTI 7, n = 5): 5
- % ILS (subcutaneous M109 tumors [6]; initiation PTI 12): 8%
- Complete Responses (tumor-free at day 60 PTI) (subcutaneous M109 tumors [6]; initiation PTI 12, n = 5): 0 of 5 and 0
- Partial Responses (subcutaneous M109 tumors [6]; initiation PTI 12, n = 5): 5
- relative affinity for the folate receptor [7]: 0.59
- DNA synthesis inhibition in the presence of excess free folic acid (FR-positive KB cells): effectively blocked any DNA synthesis inhibition
- animals showing a complete response ([8]; 1800 nmol/kg i.p. qd×30): 1 of 4
- increase in lifespan ([8]; 1800 nmol/kg i.p. qd×30 from day 4 post tumor inoculation): 240%
- dose dependence of activity in M109 tumor-bearing mice ([8]; 100, 400, 1800 nmol/kg i.p. qd×30 from day 4, FIG. 11): dose-dependent activity
- activity against subcutaneous folate-receptor-negative 4T-1 tumor [9]: no activity
